Measurements: patent US4057635A, “Carbamates of ergolines and therapeutic compositions therewith” (Simes Societa Italiana Medicinali e Sintetici S.p.A., priority 1973, dated 1977)

Experiments:
therapeutic index = assay type: in vivo
Excerpt: The active concentrations are comprised between 2 and 20 micrograms per ml. […] The range of the active dosages is comprised between 20 and 100 micrograms/kilogram e.v. In vitro, the compound XXXVIII releases the muscles of the aorta of rabbits at concentrations of 50-100 micrograms/ml. The therapeutic index is favourable for an indication of the product as an antispastic of the gastro-intestinal system and the biliary tract.
(§1) The active dosages are comprised between 5 and 20 micrograms/ml in vitro, and from 50 to 500 micrograms/kilogram e.v. The acute toxicity of the compound LI has proven to be extremely low and consequently the therapeutic index is favorable for its use as a spasmolytic of the smooth muscles of the vessels and organs other than vessels.

[1] = system: smooth muscles of the vessels; test: antiserotoninic effects in vivo at the level of the smooth muscles of the vessels; conditions: e.v.
[2] = system: alpha-adrenergic receptors; test: stimulation of the alpha-adrenergic receptors; conditions: on the basis of the tests carried out
central nervous system [3] = test: antiserotoninic effects in vivo at the level of the central nervous system; conditions: s.c.
dogs = test: peripheral vasoconstrictive hypertensive action in vivo, in dogs
ileum = test: spasmolytic activity on isolated ileum of guinea pigs
Excerpt: as §1
In addition, the compound IV acts on the trachea of guinea pigs as a releasing agent at the concentration of 0.5-1 microgram/ml. On the ileum of the same animals, as a spasmolytic at a concentration of 50-100 micrograms/ml and on the uterus and stomach of rats as an antiserotoninic at the concentration of 0.05-0.1 micrograms/ml. […] The compound on the basis of the pharmacological and toxicological properties which have been detected can be employed for the treatment of headaches.

central nervous system [4] = test: stimulation of the central nervous system; conditions: in vivo
deferent vessel = test: spasmolytic activity on isolated deferent vessel of rats
Excerpt: as §1

[5] = system: muscles of the peripheral vessels; test: spasmolytic effects in vivo on the muscles of the peripheral vessels; conditions: e.v.
Excerpt: as §1

bowel and vessel muscles [6] = test: spasmolytic properties on the bowel and vessel muscles in vitro
Excerpt: as §1

bowel and vessel muscles [7] = test: spasmolytic properties on the bowel and vessel muscles in vivo
Excerpt: as §1

acute toxicity = conditions: in vivo
Excerpt: as §1

With `CN1C[C@H](COC(=O)N2CCCCCC2)C[C@@H]2c3cccc4[nH]cc(c34)C[C@H]21` [compound XXXVIII, D-6-methyl-8β-(perhydroazepinylcarbonyloxymethyl)-ergoline] the therapeutic index (therapeutic index; as antispastic of the gastro-intestinal system and the biliary tract) was “favourable”.

In the case of `CN(C)C(=O)OC[C@@H]1C=C2c3cccc4[nH]cc(c34)C[C@H]2N(C)C1` [compound IV], the “active dosages (antiserotoninic, smooth muscles of the vessels)” value [1] was 5-10 micrograms/kilogram, the “action on the alpha-adrenergic receptors” value [2] was “stimulant of the alpha-adrenergic receptors” and the “active dosages (antiserotoninic, central nervous system)” value (central nervous system [3]) was 0.5-1 milligrams/kilograms. For the same compound, the “dose dependence of the vasoconstrictive hypertensive effect” value (dogs; dogs and cats, e.v.) was “proportional to the dosage” and the “peripheral vasoconstrictive hypertensive action” value (dogs; in vivo) was “strong peripheral vasoconstrictive hypertensive action”.

For `CC(Cc1ccccc1)NC(=O)OC[C@@H]1C=C2c3cccc4[nH]cc(c34)C[C@H]2N(C)C1` (stereo partly drawn) [compound XXV, D-6-methyl-8β-(α-methylphenethylaminocarbonyloxymethyl)-9,10-didehydroergoline], the spasmolytic activity (ileum) was “considerable spasmolytic activity”, the “stimulating effects on the central nervous system” value (central nervous system [4]) was “interesting actions which stimulated the central nervous system” and the spasmolytic activity (deferent vessel) was “considerable spasmolytic activity”. For the same compound, the “dosages (spasmolytic effects on the muscles of the peripheral vessels)” value [5] was 20-200 micrograms/kilogram.

In the case of `CC(Cc1ccccc1)NC(=O)OC[C@@H]1C[C@@H]2c3cccc4[nH]cc(c34)C[C@H]2N(C)C1` (stereo partly drawn) [compound LI, D-6-methyl-8β-(α-methylphenethylaminocarbonyloxymethyl)-ergoline], the “stimulating effects on the central nervous system” value (central nervous system [4]) was “lost the stimulating effects on the central nervous system”, the “spasmolytic properties on the bowel and vessel muscles” value (bowel and vessel muscles [6]) was “retained” and the “spasmolytic properties on the bowel and vessel muscles” value (bowel and vessel muscles [7]) was “retained”. For the same compound, the therapeutic index (therapeutic index; as spasmolytic of the smooth muscles of the vessels and organs other than vessels) was “favorable” and the acute toxicity (acute toxicity) was “extremely low”.
